# Measured values: US3994974A, “α-Aminomethylbenzyl alcohol derivatives” (Yamanouchi Pharmaceutical Co., Ltd., priority 1972, dated 1976)
# Where a name gives a salt, the structure may show the parent alone. Read-outs that look alike come from different tables or passages of the source.
# Legend:
# [1] = tested on: isolated bronchial smooth muscle; test: Activity on isolated bronchial smooth muscle (in vitro test), histamine dihydrochloride as spasmogen (Anti-histamine); format: cell-based, guinea pig; conditions: for EC50: Cavia porcellus, read-out: Anti-histamine ED50; for Anti-histamine relative activity: relative to control E (trimetoquinol) = 1.0, ED50 ratio, smaller = more potent
# Protocol: (§1) Activity on isolated bronchial smooth muscle (in vitro test)
# (§2) The trachea of a guinea pig was cut spirally and the isolated bronchial preparation was suspended in Magnus bath. Tyrode's solution was filled in a 50 ml bath and kept at 37° C. Then, 10-^5 g/ml of histamine dihydrochloride or methacholine chloride was added to a bath as spasmogen. After the contraction of the trachea reached a plateau, a test substance shown in the below-showing table was added to the preparation, cumulatively. The concentration producing 50% relaxation of the contracted bronchial muscle was designated as ED50.
# [2] = tested on: isolated bronchial smooth muscle; test: Activity on isolated bronchial smooth muscle (in vitro test), methacholine chloride as spasmogen (Anti-methacholine Chloride); format: cell-based, guinea pig; conditions: for EC50: Cavia porcellus, read-out: Anti-methacholine Chloride ED50; for Anti-methacholine Chloride relative activity: relative to control E (trimetoquinol) = 1.0, ED50 ratio, smaller = more potent
# Protocol: as §1, §2
# Histamine-asthma = test: Activity on experimental asthma (in vivo test), Histamine-asthma; set-up: species or system guinea pig; conditions: Cavia porcellus, sc, read-out: Histamine-asthma ED50
# Protocol: (§3) Activity on experimental asthma (in vivo test)
# (§4) A guinea pig was placed in a 11 liter glass chamber and exposed to the spasmogen by means of a nebulizer. […] Drugs were administered subcutaneously to animals 30 minutes before application of the spasmogen. […] ED50 was calculated by the method of Litchfield-Wilcoxon [J. Pharmacol. Exptl. Therap, 96, 99-113 (1949)].
# [3] = tested on: Methacholine chloride-asthma; test: Activity on experimental asthma (in vivo test), Methacholine chloride-asthma; set-up: species or system guinea pig; conditions: Cavia porcellus, sc, read-out: Methacholine chloride-asthma Ed50
# Protocol: as §3, §4
# β1 = target: T1, β1 (Canis lupus familiaris, UniProt P79148); test: β1-action: heart rate response (ΔHR) in anesthetized dogs; format: in vivo, Mongrel dogs; conditions: intravenous
# T1 construct: Mongrel dogs of either sex; from tissue; host or cells: heart of the living anesthetized mongrel dog (heart rate)
# T1 sequence (P79148 whole entry): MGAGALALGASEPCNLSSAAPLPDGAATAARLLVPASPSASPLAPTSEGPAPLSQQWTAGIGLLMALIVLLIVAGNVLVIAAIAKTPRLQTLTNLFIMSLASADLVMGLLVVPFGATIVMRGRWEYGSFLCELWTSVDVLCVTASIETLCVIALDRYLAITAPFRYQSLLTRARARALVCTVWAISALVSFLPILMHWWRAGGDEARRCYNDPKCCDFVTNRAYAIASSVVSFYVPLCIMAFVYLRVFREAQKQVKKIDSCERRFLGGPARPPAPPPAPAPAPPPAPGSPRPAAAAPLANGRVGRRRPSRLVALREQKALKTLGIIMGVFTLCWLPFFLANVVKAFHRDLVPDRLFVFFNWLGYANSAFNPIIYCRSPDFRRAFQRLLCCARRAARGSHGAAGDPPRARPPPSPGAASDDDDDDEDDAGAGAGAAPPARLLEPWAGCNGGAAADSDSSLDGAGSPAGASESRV
# Protocol: Mongrel dogs of either sex weighing about 10 Kg were anesthetized with pentobarbital Na, 30 mg/Kg intravenously. Arterial blood pressure was measured from a cannula in the right femoral artery and the pulse pressure used to trigger a ratemeter for a record of heart rate. (β1.action). Intravenous injections were made through a cannula in a femoral vein, and ED50bpm values were obtained from the does-response (ΔHR) curves. ED50bpm vs. ED50 ratios mean its own selectivity.
# β1 /β2 = test: Selectivity (ratio of β1/β2), ED50bpm vs. ED50 in anesthetized dogs; format: in vivo, Mongrel dogs
# β2 = target: T2, β2 (Canis lupus familiaris, UniProt P54833); test: β2-action: inhibition of histamine-induced increase in bronchial resistance in anesthetized dogs; format: in vivo, Mongrel dogs; conditions: dog, intravenous, cumulative, 5 minutes before histamine 10 μg/Kg i.v.
# T2 construct: Mongrel dogs of either sex; from tissue; host or cells: airways of the living anesthetized mongrel dog (bronchial resistance)
# T2 sequence (P54833 whole entry): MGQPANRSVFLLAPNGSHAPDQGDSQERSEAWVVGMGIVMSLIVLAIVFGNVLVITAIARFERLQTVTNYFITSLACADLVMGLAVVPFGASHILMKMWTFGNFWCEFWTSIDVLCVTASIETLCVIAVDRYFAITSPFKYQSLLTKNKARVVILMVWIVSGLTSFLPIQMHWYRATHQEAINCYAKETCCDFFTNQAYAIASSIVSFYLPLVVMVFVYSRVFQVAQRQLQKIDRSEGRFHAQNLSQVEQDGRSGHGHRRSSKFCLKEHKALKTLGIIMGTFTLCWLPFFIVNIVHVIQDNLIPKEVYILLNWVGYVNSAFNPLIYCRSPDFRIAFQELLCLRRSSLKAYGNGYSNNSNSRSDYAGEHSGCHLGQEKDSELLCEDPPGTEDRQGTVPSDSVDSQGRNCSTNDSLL
# [4] = subcutaneous, 30 minutes before 0.01% histamine dihydrochloride spray, Litchfield-Wilcoxon
# [5] = concentration producing 50% relaxation of contracted bronchial muscle, 10^-5 g/ml histamine dihydrochloride, guinea pig trachea, 37° C
# [6] = concentration producing 50% relaxation of contracted bronchial muscle, 10^-5 g/ml methacholine chloride, guinea pig trachea, 37° C
# [7] = subcutaneous, 30 minutes before methacholine chloride spray, Litchfield-Wilcoxon
Structure (SMILES),"EC50 [1, 5] [mg/L]","EC50 [2, 6] [mg/L]",EC50 [1] [mg/L],Anti-histamine relative activity [1],EC50 [2] [mg/L],Anti-methacholine Chloride relative activity [2],ED50 (Histamine-asthma; [4]) [µg/kg],ED50 [3] [µg/kg],β1-action ED50bpm (β1) [µg/kg],Selectivity (ratio of β1/β2) (β1 /β2),ED50 (β2) [µg/kg],"ED50 [3, 7] [µg/kg]",ED50 (Histamine-asthma) [µg/kg]
"CC(Cc1ccc(O)cc1)NCC(O)c1ccc(O)c(NC=O)c1 (single isomer, unassigned) [Example 8, 3-formylamino-4-hydroxy-α-[N-(1-methyl-2-p-hydroxyphenylethyl)aminomethyl]benzyl alcohol [A] . 1/2 fumarate]",,,0.00094,0.35,0.011,0.52,1.9,2.6,0.26,8.38,,,
"CC(C)(C)NCC(O)c1ccc(O)c(CO)c1 (stereo not drawn) [Known compound D, 4-hydroxy-3-hydroxymethyl-α-tert-butylaminomethylbenzyl alcohol]",0.01,0.096,,3.7,,4.57,,,7.0,5.0,1.4,,
"COc1cc(C[C@@H]2NCCc3cc(O)c(O)cc32)cc(OC)c1OC [Known compound E, l-1-(3,4,5-trimethoxybenzyl)-6,7-dihydroxy 1,2,3,4-tetrahydroisoquinoline hydrochloride]",0.0027,0.021,,1.0,,1.0,11.3,,,,,12.4,
"CC(C)NCC(O)c1ccc(O)c(N)c1 (stereo not drawn) [Known compound A, 3-amino-4-hydroxy-α-isopropylaminomethylbenzyl alcohol]",,,0.3,111,3,143,,,,,,,
"COc1ccc(CC(C)NCC(O)c2ccc(O)c(NC=O)c2)cc1 (single isomer, unassigned) [Example 22, 3-formylamino-4-hydroxy-α-[N-(1-methyl-2-p-methoxyphenylethyl)aminomethyl]benzyl alcohol [A] . 1/2 fumarate]",,,0.00046,0.17,0.0046,0.22,,,0.72,,,,3.6
"CC(C)NCC(O)c1ccc(O)c(O)c1 (stereo not drawn) [Known compound F, α-(isopropylaminomethyl) protocatechuyl alcohol]",0.0055,0.028,,2.04,,1.33,15.7,,,,,11.2,

# More lines, main results first:
"EC50 [1, 5] [mg/L]","EC50 [2, 6] [mg/L]",Structure (SMILES),EC50 [1] [mg/L],Anti-histamine relative activity [1],EC50 [2] [mg/L],Anti-methacholine Chloride relative activity [2],ED50 (Histamine-asthma; [4]) [µg/kg],ED50 [3] [µg/kg],β1-action ED50bpm (β1) [µg/kg],Selectivity (ratio of β1/β2) (β1 /β2),ED50 (β2) [µg/kg],"ED50 [3, 7] [µg/kg]",ED50 (Histamine-asthma) [µg/kg]
5,> 100,"CCOC(=O)Nc1cc(C(O)CNC(C)C)ccc1O (stereo not drawn) [Known compound B, 3-ethoxycarbonylamino-4-hydroxy-α-isopropylaminomethylbenzyl alcohol]",,185,,> 4760,,,,,,,
0.00086,0.0089,"CC(CCc1ccc(O)cc1)NCC(O)c1ccc(O)c(NC=O)c1 (stereo not drawn) [Example 19, 3-formylamino-4-hydroxy-α-[N-(1-methyl-3-p-hydroxyphenylpropyl)aminomethyl] benzyl alcohol . 1/2 fumarate . mono-hydrate]",,0.32,,0.42,1.4,,0.59,12,,8.1,
1,> 100,CC(=O)Nc1cc(C(O)CNC(C)C)ccc1O.Cl (stereo not drawn) [3-acetylamino-4-hydroxy-α-(isopropylaminomethyl)benzyl alcohol hydrochloride],,370,,> 4760,,,,,,,
0.09,> 100,"CNC(=O)Nc1cc(C(O)CNC(C)C)ccc1O (stereo not drawn) [Known compound C, 4-hydroxy-3-(N'-methylureido)-α-isopropylaminomethylbenzyl alcohol]",,3.33,,> 4760,,,,,,,
